Experimental data: ChEMBL document CHEMBL5252665, “The Identification of GPR52 Agonist HTL0041178, a Potential Therapy for Schizophrenia and Related Psychiatric Disorders” (ACS Med Chem Lett, 2023)
Blank lines part the entries; values can stand above or below the molecule they belong to.

Experiments:
[1] = Octanol-water partition coefficient, log D of the compound by chromatographic method; type: physicochemical
[2] = Metabolic stability in rat liver microsomes assessed as intrinsic clearance preincubation with compound followed by NADPH addition and measured after 45 mins by LC-MS/MS analysis; type: ADME, Microsome; conditions: read-out: CLH
[3] = Metabolic stability in human liver microsomes assessed as intrinsic clearance preincubation with compound followed by NADPH addition and measured after 45 mins by LC-MS/MS analysis; type: ADME, Microsome; conditions: read-out: CLH
[4] = Apparent permeability of compound across apical to basolateral side in dog MDCK-MDR1 cells incubated for 1 hr by LC-MS/MS analysis; type: ADME, cell-based, Canis lupus familiaris
[5] = Clearance in Sprague-Dawley rat plasma at 1 mg/kg,iv by LC-MS/MS analysis; type: ADME, organism-based
[6] = Volume of distribution at steady state in Sprague-Dawley rat at 1 mg/kg,iv by LC-MS/MS analysis; type: ADME, organism-based; conditions: in vivo, read-out: Vdss
[7] = Half life in Sprague-Dawley rat at 1 mg/kg,iv by LC-MS/MS analysis; type: ADME, organism-based; conditions: in vivo
[8] = AUC (0 to infinity) in Sprague-Dawley rat at 1 mg/kg,iv by LC-MS/MS analysis; type: ADME, organism-based; parameters: dose 1 mg/kg, route iv; conditions: in vivo
[9] = Unbound brain-to-plasma concentration ratio in Sprague-Dawley rat plasma at 1 mg/kg,iv by LC-MS/MS analysis; type: ADME, organism-based; conditions: brain and plasma, read-out: K(p,uu,brain)
[10] = AUC (0 to infinity) in Sprague-Dawley rat at 3 mg/kg,po by LC-MS/MS analysis; type: ADME, organism-based; parameters: dose 3 mg/kg, route po; conditions: in vivo
[11] = Cmax in Sprague-Dawley rat at 3 mg/kg,po by LC-MS/MS analysis; type: ADME, organism-based; parameters: dose 3 mg/kg, route po; conditions: in vivo
[12] = Oral bioavailability in Sprague-Dawley rat at 3 mg/kg by LC-MS/MS analysis; type: ADME, organism-based; conditions: in vivo
[13] = Oral absorption in Sprague-Dawley rat at 3 mg/kg by LC-MS/MS analysis; type: ADME, organism-based; conditions: in vivo
[14] = Lipophilicity, logP of the compound by shake flask assay; type: physicochemical; conditions: octanol/water
[15] = Clearance in CD-1 mouse plasma at 1 mg/kg,iv by LC-MS/MS analysis; type: ADME, organism-based
[16] = Volume of distribution at steady state in CD-1 mouse at 1 mg/kg,iv by LC-MS/MS analysis; type: ADME, organism-based; conditions: in vivo, read-out: Vdss
[17] = Half life in CD-1 mouse at 1 mg/kg,iv by LC-MS/MS analysis; type: ADME, organism-based; conditions: in vivo
[18] = AUC (0 to infinity) in CD-1 mouse at 1 mg/kg,iv by LC-MS/MS analysis; type: ADME, organism-based; parameters: dose 1 mg/kg, route iv; conditions: in vivo
[19] = AUC (0 to infinity) in CD-1 mouse at 3 mg/kg,po by LC-MS/MS analysis; type: ADME, organism-based; parameters: dose 3 mg/kg, route po; conditions: in vivo
[20] = Cmax in CD-1 mouse at 3 mg/kg,po by LC-MS/MS analysis; type: ADME, organism-based; parameters: dose 3 mg/kg, route po; conditions: in vivo
[21] = Oral bioavailability in CD-1 mouse at 3 mg/kg by LC-MS/MS analysis; type: ADME, organism-based; conditions: in vivo
[22] = Oral absorption in CD-1 mouse at 3 mg/kg by LC-MS/MS analysis; type: ADME, organism-based; conditions: in vivo
[23] = Clearance in cynomolgus monkey plasma at 1 mg/kg,iv by LC-MS/MS analysis; type: ADME, organism-based, Macaca fascicularis
[24] = Volume of distribution at steady state in cynomolgus monkey at 1 mg/kg,iv by LC-MS/MS analysis; type: ADME, organism-based, Macaca fascicularis; conditions: in vivo, read-out: Vdss
[25] = Half life in cynomolgus monkey at 1 mg/kg,iv by LC-MS/MS analysis; type: ADME, organism-based, Macaca fascicularis; conditions: in vivo
[26] = AUC (0 to infinity) in cynomolgus monkey at 1 mg/kg,iv by LC-MS/MS analysis; type: ADME, organism-based, Macaca fascicularis; parameters: dose 1 mg/kg, route iv; conditions: in vivo
[27] = AUC (0 to infinity) in cynomolgus monkey at 3 mg/kg,po by LC-MS/MS analysis; type: ADME, organism-based, Macaca fascicularis; parameters: dose 3 mg/kg, route po; conditions: in vivo
[28] = Cmax in cynomolgus monkey at 3 mg/kg,po by LC-MS/MS analysis; type: ADME, organism-based, Macaca fascicularis; parameters: dose 3 mg/kg, route po; conditions: in vivo
[29] = Oral bioavailability in cynomolgus monkey at 3 mg/kg by LC-MS/MS analysis; type: ADME, organism-based, Macaca fascicularis; conditions: in vivo
[30] = Oral absorption in cynomolgus monkey at 3 mg/kg by LC-MS/MS analysis; type: ADME, organism-based, Macaca fascicularis; conditions: in vivo, read-out: Drug absorption
[31] = Terminal brain concentration in Sprague-Dawley rat model of amphetamine-induced hyperlocomotion activity at 10 mg/kg, po measured after 2 hrs by LC-MS/MS analysis; type: ADME, organism-based; conditions: read-out: Clast
[32] = Terminal free brain concentration in Sprague-Dawley rat model of amphetamine-induced hyperlocomotion activity at 10 mg/kg, po measured after 2 hrs by LC-MS/MS analysis; type: ADME, organism-based; conditions: in vivo

Structure (SMILES): O=C1NCCc2c1nnn2-c1ccnc(Cc2cc(F)cc(C(F)(F)F)c2)c1
chromatographic logD [1]: 4

Structure (SMILES): O=C1NCCc2c1cnn2-c1cc(Cc2cccc(C(F)(F)F)c2)ccn1
microsomal CLint [2]: 46 µL/min/mg
microsomal CLint [3]: < 10 µL/min/mg
Papp A→B at 1 h [4]: 46 ×10⁻⁶ cm/s
chromatographic logD [1]: 4.9
clearance [5]: 39 mL/min/kg
Vd [6]: 1.5 L/kg
half-life [7]: 0.6 h
AUC(0-inf) [8]: 440 ng·h/mL
Kp uu [9]: 0.4
AUC(0-inf) [10]: 709 ng·h/mL
Cmax [11]: 143 ng/mL
bioavailability [12]: 54%
Fa [13]: > 100%

Structure (SMILES): O=C1NCc2c1cnn2-c1ccnc(Cc2cc(F)cc(C(F)(F)F)c2)c1
chromatographic logD [1]: 4

Structure (SMILES): O=C1NCCCc2c1cnn2-c1ccnc(Cc2cc(F)cc(C(F)(F)F)c2)c1
microsomal CLint [2]: 102 µL/min/mg
microsomal CLint [3]: 21 µL/min/mg
chromatographic logD [1]: 4.2

Structure (SMILES): CN1CCc2c(cnn2-c2cc(Cc3cc(F)cc(C(F)(F)F)c3)ccn2)C1=O
microsomal CLint [2]: 33 µL/min/mg
microsomal CLint [3]: 62 µL/min/mg
Papp A→B at 1 h [4]: 30 ×10⁻⁶ cm/s
chromatographic logD [1]: 5.8

Structure (SMILES): O=C1NCCc2c1cnn2-c1ccnc(Cc2cc(F)c(Cl)c(C(F)(F)F)c2)c1
microsomal CLint [2]: 57 µL/min/mg
microsomal CLint [3]: 24 µL/min/mg
chromatographic logD [1]: 4.6

Structure (SMILES): O=C1CCCc2c1cnn2-c1cc(Cc2cccc(C(F)(F)F)c2)ccn1
microsomal CLint [2]: 120 µL/min/mg
microsomal CLint [3]: 50 µL/min/mg
Papp A→B at 1 h [4]: 25 ×10⁻⁶ cm/s
chromatographic logD [1]: 6.7

Structure (SMILES): Cc1nn(-c2ccnc(Cc3cc(F)cc(OC(F)F)c3)c2)c2c1C(=O)NCC2
microsomal CLint [2]: 63 µL/min/mg
microsomal CLint [3]: 34 µL/min/mg
Papp A→B at 1 h [4]: 32 ×10⁻⁶ cm/s
chromatographic logD [1]: 3.9

Structure (SMILES): O=C1NCCc2c1cnn2-c1ccnc(Cc2cc(F)cc(C(F)F)c2)c1
microsomal CLint [2]: 37 µL/min/mg
microsomal CLint [3]: 15 µL/min/mg
Papp A→B at 1 h [4]: 30 ×10⁻⁶ cm/s
chromatographic logD [1]: 3.3

Structure (SMILES): O=C1NCCc2nn(-c3ccnc(Cc4cc(F)cc(C(F)(F)F)c4)c3)cc21
chromatographic logD [1]: 4.4

Now from value to molecule:

microsomal CLint [2]: 71 µL/min/mg
microsomal CLint [3]: 32 µL/min/mg
Papp A→B at 1 h [4]: 28 ×10⁻⁶ cm/s
chromatographic logD [1]: 3.6
Structure (SMILES): Cc1nn(-c2ccnc(Cc3cc(F)cc(C(F)F)c3)c2)c2c1C(=O)NCC2

microsomal CLint [2]: 40 µL/min/mg
microsomal CLint [3]: 31 µL/min/mg
Papp A→B at 1 h [4]: 46 ×10⁻⁶ cm/s
chromatographic logD [1]: 4.4
Structure (SMILES): Cc1nn(-c2ccnc(Cc3cc(F)cc(C(F)(F)F)c3)c2)c2c1C(=O)NCC2

microsomal CLint [2]: 25 µL/min/mg
microsomal CLint [3]: < 10 µL/min/mg
Papp A→B at 1 h [4]: 38 ×10⁻⁶ cm/s
chromatographic logD [1]: 3.8
logP [14]: 4
Structure (SMILES): O=C1NCCc2c1cnn2-c1cncc(Cc2cc(F)cc(C(F)(F)F)c2)c1

microsomal CLint [2]: 63 µL/min/mg
microsomal CLint [3]: 27 µL/min/mg
Papp A→B at 1 h [4]: 48 ×10⁻⁶ cm/s
chromatographic logD [1]: 4.1
Structure (SMILES): Cc1nn(-c2cncc(Cc3cc(F)cc(C(F)(F)F)c3)c2)c2c1C(=O)NCC2

microsomal CLint [2]: 25 µL/min/mg
microsomal CLint [3]: 11 µL/min/mg
Papp A→B at 1 h [4]: 48 ×10⁻⁶ cm/s
chromatographic logD [1]: 3.9
logP [14]: 4.2
clearance [5]: 16 mL/min/kg
Vd [6]: 1 L/kg
half-life [7]: 0.8 h
AUC(0-inf) [8]: 1020 ng·h/mL
Kp uu [9]: 0.35
AUC(0-inf) [10]: 1260 ng·h/mL
Cmax [11]: 285 ng/mL
bioavailability [12]: 40%
Fa [13]: 52%
clearance [15]: 6 mL/min/kg
Vd [16]: 1.5 L/kg
half-life [17]: 3.4 h
AUC(0-inf) [18]: 2610 ng·h/mL
AUC(0-inf) [19]: 5910 ng·h/mL
Cmax [20]: 486 ng/mL
bioavailability [21]: 95%
Fa [22]: 80%
clearance [23]: 2 mL/min/kg
Vd [24]: 1.4 L/kg
half-life [25]: 8 h
AUC [26]: 7854 ng·h/mL
AUC [27]: 6327 ng·h/mL
Cmax [28]: 581 ng/mL
F [29]: 81%
Fa [30]: 85%
concentration at 2 h [31]: 1560 nM
Drug uptake(free) [32]: 41.2 nM
Structure (SMILES): O=C1NCCc2c1cnn2-c1ccnc(Cc2cc(F)cc(C(F)(F)F)c2)c1

microsomal CLint [2]: 30 µL/min/mg
microsomal CLint [3]: 15 µL/min/mg
Papp A→B at 1 h [4]: 32 ×10⁻⁶ cm/s
chromatographic logD [1]: 5.1
logP [14]: 3.1
Structure (SMILES): O=C1NCCc2c1cnn2-c1cc(Cc2cc(F)cc(C(F)(F)F)c2)ccn1

microsomal CLint [2]: 48 µL/min/mg
microsomal CLint [3]: < 10 µL/min/mg
chromatographic logD [1]: 5
Structure (SMILES): O=C1NCCc2c1cnn2-c1cccc(Cc2cc(F)cc(C(F)(F)F)c2)c1
